These are literature values, as cited in patent US20070032555A1, “Novel aryloxyphenyl-propanamines” (priority 2005, published 2007).

In series [1] the test system is 6-hydroxydopamine-lesion rats.
The conditions of series [2]: humans, FDA Talk Paper T04-60.

`CNCC[C@@H](Oc1ccccc1C)c1ccccc1` [Compound 1, (R)-N-methyl-3-phenyl-3-(o-tolyloxy)propan-1-amine]: the half life (CYP2D6 poor metabolisers (PM)) is 62 h. Also, the mean half life (healthy volunteers, CYP2D6 extensive metabolizers (EM)) was 18 h. For the same compound, the “increase of total exposure, measured as AUC0-τ” value (poor metabolisers (PM) versus extensive metabolizers (EM)) was 8-10 fold. Further, in series [1], the motor hyperactivity entry was “reductions in their motor hyperactivity”. Further, in series [2], the hepatotoxicity entry is “rare but very severe hepatotoxicity”.
